Test results: patent US12215389B2, “Compositions for detecting epigenetic modifications” (EXACT SCIENCES CORPORATION, priority 2007, dated 2025)

Tests used:
[1] = test system: methylated gene promoters in FFPE tissue DNA; test: Real-time MSP on colon tissue samples; set-up: species or system human
Protocol: Real-time MSP was applied on a 7900HT fast real-time PCR system (Applied Biosystems). 2.4 μl of the modified DNA (equivalent to 2.5 μg unconverted DNA) was added to a PCR mix (total volume 12 μl) containing buffer (16.6 mM (NH4)2SO4, 67 mM Tris (pH 8.8), 6.7 mM MgCl2, 10 mM β-mercaptoethanol), dNTPs (5 mM), forward primer (6 ng), reverse primer (18 ng), molecular beacon (0.16 μM), BSA (0.1 μg), and Jumpstart DNA Taq polymerase (0.4 units; Sigma Aldrich). Cycle program used was as follows: 5 minutes 95° C., followed by 45 cycles of 30 seconds 95° C., 30 seconds 57° C. (51° C. for APC), and 30 seconds 72° C., followed by 5 minutes 72° C. A standard curve (2×106—20 copies) was included to determine copy numbers of unknown samples by interpolation of their Ct values to the standard curve.
Marker selection in colon tissue: Based on re-expression, 224 different gene assays representing 145 gene promotors were tested on the Base5 methylation profiling platform (data not shown, see reference 1 for details). The 37 most differentially methylated gene sequences assessing 29 gene promoters were validated on retrospectively collected tumors from 65 colorectal cancer patients (all stages) and 74 distant resection ends (histopathologically normal) using real-time MSP. Several markers reliably detected CRC in those tissue samples (data not shown). The results were confirmed on an independent test set containing 39 tissue controls (non-cancerous), 34 carcinomas and 16 adenomas. Several combinations of the tested markers reliably detected CRC with high specificity and sensitivity.
The ten best performing markers GATA5, GATA4, SFRP1, SFRP2, APC, MGMT, NDRG4, OSMR, JPH3 and ADAM23 were validated with primer sets and beacon probes as specified in Table 24. In addition to the colon test genes, the independent reference gene β-Actin (ACT) was also measured. The ratios between the colon test genes and ACT were calculated, and are the test result of the assay.
Marker candidates identified by re-expression were screened using 37 real-time methylation specific PCR (real-time MSP) assays. These assays were used to assess the methylation status of 29 gene promoters in 293 formalin-fixed paraffin-embedded (FFPE) tissue samples collected from various clinics. Samples included 99 carcinomas of various stages, 16 adenomas, 63 samples from patients with cancer other than CRC (20 breast [stages I-III], 22 bladder [stages I-III], 21 lung [stages I and II]), 39 samples from patients with no evidence of cancer and 76 distant resection ends (histopathologically normal) from CRC patients. These samples were divided into training and independent test sets, and used to select the gene methylation assays best able to discriminate between cancerous and non-cancerous samples. The training set included retrospectively collected tumors from 65 colorectal cancer patients (all stages) and 74 distant resection ends. Using the 10 best performing genes the results were confirmed on an independent test set containing 59 samples from patients with cancer other than CRC, 39 non-cancerous controls and 50 cancer cases (34 carcinomas and 16 adenomas).
The individual performance of the 10 best performing tissue markers OSMR, SFRP1, GATA4, SFRP2, NDRG4, ADAM23, GATA5, MGMT, APC and JPH3 is shown in FIG. 7, when the analytical cut-off was set to give 100% specificity, except for JPH3 where a specificity of 95% was obtained (based on the 39 non-cancerous controls). In addition to the colon test genes, the independent reference gene β-Actin (ACT) was also measured. The ratios between the colon test genes and ACT were calculated, and are the test result of the assay.

[2] = test system: methylated gene promoters in plasma DNA; test: Real-time MSP on plasma DNA; set-up: species or system human; conditions: for % Specificity (all 59 controls), plasma set 1: plasma training set 1
Protocol: 10 ml of blood was obtained per individual using EDTA Vacutainer™ tubes. Individuals with no suspicious findings, adenomas or carcinomas based on colonoscopy were enrolled in the present study. Within 4 hrs from the blood drawing, the plasma fraction was separated from the cell fraction by centrifugation at 1500 g for 15 min (4° C.). The plasma was transferred to new tubes and once again centrifuged (1500 g, 15 min, 4° C.), after which the supernatant was transferred to new tubes and stored at −80° C. until further use. Samples were shipped on dry ice.
DNA isolation from plasma samples (1.2 to 6 ml) was performed using an upscaled phenol-chloroform DNA isolation method using the 15 ml of Heavy Phase lock Gel tubes (PLG tubes) (Eppendorf, cat #0032 005.152) or alternatively the ChargeSwitch® gDNA 1 ml serum kit from Invitrogen (cat #CS11040).
Plasma samples were thawed and 1/10 volume of 10× buffer (240 mM EDTA (pH=8.0), 750 mM NaCl), 1/10 volume of 10% SDS and 5 μl of Proteinase K (20 mg/ml stock solution) per 1 ml of sample (e.g. 15 μl for 3 ml of sample) was added to each plasma sample. This mixture was incubated overnight at 48° C. at constant shaking (200 RPM).
Subsequently the PLG tube was centrifuged at 2500 RCF for 3 min, sample mixture and approximately the same volume of phenol/chloroform (Invitrogen, cat #15593049) were added to it. This solution was briefly vortexed, mixed for 10 min using a tube rocker at room temperature and centrifuged for 5 min at 2500 RCF. In case the retrieved sample volume was ≤4 ml, an equal volume of phenol/chloroform was added. The upper aqueous layer was phenol/chloroform-treated for a second time.
DNA was precipated from the upper aqueous layer by adding 5 μl glycogen, 1/10 volume of 7.5 M Ammonium Acetate and 2-2.5 volumes of cold (−20° C.) 100% ethanol. Tubes were gently inverted and incubated at −20° C. for at least 1 h, followed by a centrifugation step at 17000 RCF for 30 min (4° C.). Ethanol was carefully removed by pipetting. Pellets were washed with 2 ml freshly prepared 70% ethanol, vortexed gently and submitted to a centrifugation step at 17000 RCF for 15 min at 4° C. After careful removal of the remaining ethanol, pellets were air dried and resuspended in 45 μl of LoTE pH 8.0. The isolated DNA is stored at −80° C. until further processing.
The complete content of DNA isolated in above procedure was subjected to sodium bisulfite treatment (BT) using the EZ-96 DNA Methylation kit from Zymo Research (Cat #D5003) performed on a pipetting robot (Tecan Freedom EVOII, Roma, Liha, Mca, Te-Vacs). Briefly, 45 μl of plasma DNA sample was mixed with 5 μl of M-Dilution Buffer (provided in kit) and incubated at 37° C. for 15 min shaking at 1100 RPM. This mixture was further incubated with 100 μl of diluted CT conversion reagent (provided in kit) shaking at 70° C. for 3 hours (protected from light). Subsequently the modified DNA was desalted and desulfonated according to manufacturer's instructions and eluted in either 40 μl or 20 μl of Tris-HCl 1 mM pH8.0, depending on the applied concentration procedure. The eluted material was stored at −80° C. until further processing.
2.4 μl of the modified DNA was added to a PCR mix (total volume 12 μl) containing home-made buffer solution (final concentrations are summarized: 16.6 mM (NH4)2SO4, 67 mM Tris (pH 8.8), 6.7 mM MgCl2, 10 mM β-mercaptoethanol), dNTPs (5 mM; Amersham Biosciences cat #27-2035-02), methylation specific forward primer (6 ng), methylation specific reverse primer (18 ng), molecular beacon (0.16 μM) and Jumpstart DNA Taq polymerase (0.4 units; Sigma Cat #D9307).
A standard curve was included (9.6×10^5—9.6 copies) to determine copy numbers of unknown samples by interpolation of their Ct values to the standard curve.
DNA was isolated following the upscaled phenol-chloroform procedure; subsequently the whole DNA sample was modified as described above.

[3] = test system: NDRG4 mRNA in CRC cell lines HCT116 and RKO; test: NDRG4 reexpression following inhibition of DNA methyltransferases (quantitative RT-PCR); assay type: cell-based, human; conditions: 1 μM DAC
Protocol: CRC cell lines HT29, SW480, Caco2, Colo205, RKO, LS174T, HCT116 and SW480 were cultured in DMEM (Invitrogen) supplemented with 10% heat-inactivated fetal calf serum (Hyclone). To investigate reexpression of NDRG4 following inhibition of DNA methyltransferases, HCT116 and RKO were treated with 1 μM DAC (Sigma).
Total RNA from cell lines, normal mucosa and tumor tissue was isolated using the Rneasy Mini kit (Qiagen) following the manufacturers instructions. Possible genomic DNA contaminations were removed by DNAse treatment with the RNase-free DNAse set (Qiagen). cDNA synthesis using the Iscript cDNA synthesis kit (Bio-Rad) was performed. Quantitative real-time (RT-PCR) was performed using SYBR Green PCR master mix (Applied Biosystems, Nieuwekerk a/d IJssel, The Netherlands). Realtime RT-PCR mixes were composed of 1× iQ SYBR Green Supermix (Bio-Rad), 400 nM of the forward (SEQ ID NO: 3 5′-[…]-3′) and reverse (SEQ ID NO: 4 5′-[…]-3′) primer and cDNA corresponding to 30 ng total RNA per reaction. As standard control, primers targeted against cyclophilin A were used. Reactions were run using the iCycler (Bio-Rad) for 40 cycles at a Tm of 60° C. The comparative Ct method was used to calculate differences in mRNA expression. […] Next, the fold difference in expression was calculated as 2-^[delta][delta]Ct, with [delta][delta]Ct=[delta]Ct,sample1-[delta]Ct,control. […]

[4] = test system: NDRG4 expression in RKO and HCT116 cell lines; test: NDRG4 re-expression by real-time RT-PCR after treatment with DAC and TSA; assay type: cell-based, human; conditions: combined treatment, 1 μM DAC and 300 nM TSA, cyclophilin reference gene
Protocol: Colon cancer cell lines LS174T, HCT116, HT29, RKO, CaCo2, Colo205, SW48 and SW480 were used for MSP, bisulfite sequencing and real time (reexpression) RT-PCR ([…] and 300 nM TSA).
Total RNA isolation was isolated by use of the Rneasy Mini kit (Qiagen) cDNA synthesis using the Iscript cDNA synthesis kit (Bio-Rad). Quantitative real-time reverse transcription-PCR was done using SYBR Green PCR Master Mix (Applied Biosystems, Nieuwekerk a/d IJssel, the Netherlands). Primers and PCR conditions are specified in Table 21.
Expression of the NDRG4 gene was determined by real-time reverse-transcription PCR (RT-PCR). […] Relative expression of NDRG4 after treatment with DAC and TSA was compared to untreated cell lines. Cyclophilin was used as a reference gene for expression normalisation.

[5] = test system: tumor endothelial cells; conditions: DAC and TSA together, Hellebrekers, Melotte et al. 2007; cited from earlier work
[6] = test system: NDRG1 expression in cancer cells; conditions: Guan et al. 2000, Bandyopadhyay et al. 2004; cited from earlier work
[7] = 16 adenoma tissue samples vs 39 controls
[8] = 34 carcinoma tissue samples vs 39 controls

## SFRP2 (DNA GGGTCGGAGTTTTTCGGAGTTGCGC; listed as DNA, chemistry not given here)
[1]; [7]
  Sensitivity: 81%
  Specificity: 100%
[1]; [8]
  Sensitivity: 68%
  Specificity: 100%
[1]; 50 cases (adenoma + carcinoma) vs 39 controls, tissue
  Specificity (%): 100%
[1]; 50 cases (adenoma + carcinoma) vs 39 controls, tissue, first cut off ratio
  Sensitivity (%): 72%
[1]; 50 cases (adenoma + carcinoma) vs 39 controls, tissue, second cut off ratio, between ( )
  Sensitivity (%): (84) %
[2]
  % Specificity (all 59 controls), plasma set 1: 97%

## OSMR (DNA TTTGGTCGGGGTAGGAGTAGC; listed as DNA, chemistry not given here)
[2]
  % Specificity (all 59 controls), plasma set 1: 100%
[2]; plasma training set 2
  % Sensitivity adenomas plasma set 2: increased plasma equivalent of DNA per real-time MSP assay: 2%
  % Specificity (all 89 controls), plasma set 2: increased plasma equivalent of DNA per real-time MSP assay: 99%

## Nc1ncn([C@H]2C[C@H](O)[C@@H](CO)O2)c(=O)n1 [DAC, 5-aza-2′-deoxycytidine]
[3]
  Endogenous NDRG4 mRNA levels after treatment with DAC: significant increased
[4]
  Relative expression of NDRG4 after treatment with DAC and TSA compared to untreated cell lines: reactivation of NDRG4 expression
[5]
  81 genes downregulated in tumor endothelial cells after DAC and TSA treatment: reexpressed
[6]
  Expression of NDRG1 after DAC treatment: upregulated

## CC(/C=C/C(=O)NO)=C\[C@@H](C)C(=O)c1ccc(N(C)C)cc1 [TSA, trichostatin A]
[4]
  Relative expression of NDRG4 after treatment with DAC and TSA compared to untreated cell lines: reactivation of NDRG4 expression
[5]
  81 genes downregulated in tumor endothelial cells after DAC and TSA treatment: reexpressed
